Test results as given in ChEMBL document CHEMBL1201862, “PubChem BioAssay data set” (2004).
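Compound exposure: 48 hours, 5 concentrations, 96-well plates. Abbreviation: GI50, concentration required for 50% inhibition of growth.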 Activity calls are given as the source filed them. Rule as the data show it: active = GI50 up to about 1.1 µM and inactive = higher.

What was measured:
Assay in all cases: NCI anticancer screen, dose series, 48 h
COLO 205 = tested on: COLO 205
HCT-116 = tested on: HCT-116
SN12C = tested on: SN12C
SNB-75 = tested on: SNB-75
LOX IMVI = tested on: LOX IMVI
IGROV-1 = tested on: IGROV-1
SK-OV-3 = tested on: SK-OV-3
HOP-62 = tested on: HOP-62
HT-29 = tested on: HT-29
U-251 = tested on: U-251
SF-295 = tested on: SF-295
NCI-H23 = tested on: NCI-H23
SNB-19 = tested on: SNB-19
CAKI-1 = tested on: CAKI-1
SK-MEL-2 = tested on: SK-MEL-2
RPMI-8226 = tested on: RPMI-8226

Measured: GI50

C1COCCSC2=C(SCCO1)SC(=C1SC3=C(SCCOCCOCCS3)S1)S2
inactive: COLO 205 > 100 µM | HCT-116 > 100 µM | SN12C > 100 µM | SNB-75 21.7 µM | LOX IMVI > 100 µM | IGROV-1 > 100 µM | SK-OV-3 72.1 µM | HOP-62 82.2 µM | HT-29 > 100 µM | U-251 49.2 µM | SF-295 50.9 µM | NCI-H23 > 100 µM | SNB-19 73.8 µM | CAKI-1 > 100 µM | SK-MEL-2 84.3 µM

O=C1NC2(NC(=O)C1=O)Nc1ccccc1S2
inactive: COLO 205 21.6 µM | HCT-116 19.2 µM | SN12C 23.8 µM | SNB-75 68.7 µM | LOX IMVI 18.9 µM | IGROV-1 > 92.7 µM | SK-OV-3 > 100 µM | HOP-62 > 83.8 µM | HT-29 67 µM | U-251 30.9 µM | SF-295 38.6 µM | NCI-H23 > 63 µM | SNB-19 > 100 µM | RPMI-8226 21.6 µM | CAKI-1 62.5 µM | SK-MEL-2 55.8 µM

CC1=C(C(=O)Nc2ccc(Cl)c(Cl)c2)C(c2ccco2)C(C(=O)Nc2ccc(Cl)c(Cl)c2)=C(C)N1
inactive: COLO 205 12.9 µM | HCT-116 9.84 µM | SN12C 11.6 µM | SNB-75 13.9 µM | IGROV-1 14.3 µM | SK-OV-3 13.5 µM | HOP-62 14 µM | HT-29 14.4 µM | U-251 11 µM | SF-295 7.91 µM | NCI-H23 17.8 µM | SNB-19 12.7 µM | RPMI-8226 7.16 µM | CAKI-1 14 µM | SK-MEL-2 12.4 µM

CC(c1ccccc1)N1O[C@]12CC[C@@]1(C)C(CCCC13OCCO3)C2 (stereo not given in full)
inactive: COLO 205 17.8 µM | HCT-116 16.1 µM | SN12C 29 µM | SNB-75 22.1 µM | LOX IMVI 11.8 µM | IGROV-1 3.72 µM | SK-OV-3 > 100 µM | HOP-62 > 100 µM | HT-29 21.7 µM | U-251 21.1 µM | SF-295 22 µM | NCI-H23 38.4 µM | SNB-19 > 100 µM | RPMI-8226 35.7 µM | CAKI-1 22.2 µM

CC(=O)N(C(C)=O)C1=C2c3ccccc3N(S(=O)(=O)c3ccccc3)C2n2c(=O)n(-c3ccccc3)c(=O)n2C1 (stereo not given)
inactive: COLO 205 30.7 µM | HCT-116 43.3 µM | SN12C 69.7 µM | SNB-75 14 µM | LOX IMVI 29.9 µM | IGROV-1 41.7 µM | SK-OV-3 32.8 µM | HOP-62 62.4 µM | HT-29 59 µM | U-251 34.4 µM | SF-295 31.8 µM | NCI-H23 26.5 µM | SNB-19 30.3 µM | RPMI-8226 12.7 µM | CAKI-1 27.5 µM | SK-MEL-2 22.9 µM

O=C(O)\C=C/C=C/C=C/C=C/C(=O)O
inactive: COLO 205 > 100 µM | HCT-116 > 100 µM | SN12C > 100 µM | SNB-75 > 100 µM | LOX IMVI > 100 µM | IGROV-1 > 100 µM | SK-OV-3 > 100 µM | HOP-62 > 100 µM | HT-29 > 100 µM | U-251 > 100 µM | SF-295 > 100 µM | NCI-H23 > 100 µM | SNB-19 > 100 µM | RPMI-8226 > 100 µM | CAKI-1 > 100 µM | SK-MEL-2 > 100 µM

N#Cc1sc2nc3c(c(-c4ccccc4)c2c1N)CCCC3
inactive: HCT-116 33.2 µM | SN12C > 100 µM | LOX IMVI 48 µM | SK-OV-3 39.4 µM | HOP-62 > 10 µM | HT-29 > 100 µM | U-251 39.8 µM | SF-295 22.1 µM | NCI-H23 > 100 µM | SNB-19 56.8 µM | RPMI-8226 > 100 µM | CAKI-1 > 100 µM | SK-MEL-2 > 100 µM

NC(=O)N/N=C(/Cc1nc2ccc(C(=O)c3ccccc3)cc2nc1O)C(=O)Nc1ccc(C(F)(F)F)cc1[N+](=O)[O-]
inactive: COLO 205 25.5 µM | HCT-116 > 100 µM | SN12C > 100 µM | SNB-75 26 µM | LOX IMVI 79.4 µM | IGROV-1 > 100 µM | SK-OV-3 84.1 µM | HOP-62 > 100 µM | HT-29 57.4 µM | U-251 75 µM | SF-295 74.8 µM | NCI-H23 84.7 µM | SNB-19 > 100 µM | RPMI-8226 50.1 µM | CAKI-1 42.8 µM | SK-MEL-2 > 100 µM

C#CCOCn1cnc2c(S)ncnc21
inactive: COLO 205 > 100 µM | SN12C > 100 µM | SNB-75 13.6 µM | LOX IMVI > 100 µM | IGROV-1 > 100 µM | SK-OV-3 > 100 µM | HOP-62 > 100 µM | HT-29 > 100 µM | U-251 > 100 µM | SF-295 > 100 µM | NCI-H23 > 100 µM | SNB-19 > 100 µM | RPMI-8226 > 100 µM | CAKI-1 > 100 µM | SK-MEL-2 > 100 µM

O=C1/C(=C/c2ccccc2Cl)COc2ccc(Br)cc21
inactive: COLO 205 73.8 µM | HCT-116 25.1 µM | SNB-75 30.4 µM | LOX IMVI > 100 µM | IGROV-1 > 100 µM | SK-OV-3 27 µM | HOP-62 92.7 µM | HT-29 > 100 µM | U-251 40.6 µM | SF-295 37.6 µM | NCI-H23 > 100 µM | RPMI-8226 2.1 µM | SK-MEL-2 82.8 µM

Nc1cc2c(C3OC(CO)C(O)C3O)n[nH]c2c(=S)[nH]1 (stereo not given)
inactive: COLO 205 > 100 µM | HCT-116 > 100 µM | SN12C > 100 µM | SNB-75 > 100 µM | IGROV-1 > 100 µM | SK-OV-3 > 100 µM | HOP-62 > 100 µM | HT-29 > 100 µM | U-251 > 100 µM | SF-295 > 100 µM | NCI-H23 > 100 µM | SNB-19 > 100 µM | RPMI-8226 > 100 µM | CAKI-1 54.3 µM | SK-MEL-2 98.2 µM

CC12C=C[C@]3(CC[C@@H]4[C@@](C)(CO)CCC[C@]4(C)C3CC1)C2 (stereo not given in full)
inactive: COLO 205 16.4 µM | HCT-116 17.9 µM | SN12C 18.2 µM | SNB-75 > 10 µM | LOX IMVI 15.6 µM | IGROV-1 17.5 µM | SK-OV-3 18.7 µM | HOP-62 14.6 µM | HT-29 17.8 µM | U-251 16.6 µM | SF-295 19.5 µM | NCI-H23 18 µM | SNB-19 19.6 µM | RPMI-8226 17.9 µM | CAKI-1 12.8 µM | SK-MEL-2 17.3 µM

O=c1nc2sc3ccc4ccccc4c3n2nc1O
inactive: COLO 205 62.4 µM | HCT-116 78.9 µM | SN12C 86.5 µM | SNB-75 41.1 µM | IGROV-1 67 µM | SK-OV-3 > 100 µM | HOP-62 23.8 µM | HT-29 47.9 µM | U-251 25.2 µM | SF-295 59.4 µM | NCI-H23 71.1 µM | SNB-19 60.1 µM | RPMI-8226 > 10 µM

O=C(OC[C@H]1O[C@@H](OC(=O)c2cc(O)c(O)c(O)c2)[C@H](OC(=O)c2cc(O)c(O)c(O)c2)[C@@H](OC(=O)c2cc(O)c(O)c(O)c2)[C@@H]1OC(=O)c1cc(O)c(O)c(O)c1)c1cc(O)c(O)c(O)c1 [PENTAGALLOYL GLUCOSE]
inactive: COLO 205 4.98 µM | HCT-116 5.11 µM | SN12C 11.9 µM | LOX IMVI 1.72 µM | IGROV-1 5.73 µM | SK-OV-3 6.17 µM | HOP-62 3.89 µM | HT-29 6.92 µM | U-251 5.33 µM | SF-295 3.92 µM | NCI-H23 2.16 µM | SNB-19 4.88 µM | RPMI-8226 2.76 µM | CAKI-1 7.67 µM | SK-MEL-2 10.7 µM

CC1(C)OC(=O)C(=Cc2ccc(O)cc2)C(=O)O1
inactive: COLO 205 > 100 µM | HCT-116 > 100 µM | SN12C > 100 µM | LOX IMVI > 100 µM | IGROV-1 > 100 µM | SK-OV-3 > 100 µM | HOP-62 > 100 µM | HT-29 > 100 µM | U-251 > 100 µM | SF-295 > 100 µM | NCI-H23 > 100 µM | SNB-19 > 100 µM | RPMI-8226 > 100 µM | CAKI-1 > 100 µM | SK-MEL-2 > 100 µM

c1ccc(COc2cccc3cccnc23)cc1
inactive: COLO 205 > 100 µM | HCT-116 83.6 µM | SN12C > 100 µM | SNB-75 67.9 µM | LOX IMVI 54.5 µM | IGROV-1 85.7 µM | SK-OV-3 > 100 µM | HOP-62 > 100 µM | HT-29 80.9 µM | SF-295 > 100 µM | NCI-H23 44 µM | SNB-19 > 100 µM | RPMI-8226 > 100 µM

C/C(=N\O)C(CN1CCCCC1)C(c1ccccc1)c1c(O)c2ccccc2oc1=O (stereo not given)
inactive: COLO 205 > 100 µM | HCT-116 > 100 µM | SN12C > 100 µM | SNB-75 > 100 µM | LOX IMVI > 100 µM | IGROV-1 > 100 µM | SK-OV-3 > 100 µM | HOP-62 > 100 µM | HT-29 > 100 µM | SF-295 54.8 µM | NCI-H23 > 100 µM | SNB-19 > 100 µM | RPMI-8226 > 100 µM | CAKI-1 > 100 µM | SK-MEL-2 > 100 µM

Nc1ccc(/C=C/c2ccnc3ccccc23)cc1
inactive: COLO 205 22.9 µM | HCT-116 17.5 µM | SNB-75 15.9 µM | IGROV-1 28.2 µM | HOP-62 15.3 µM | HT-29 23.4 µM | U-251 16.8 µM | SF-295 16.1 µM | NCI-H23 20 µM | SNB-19 27.6 µM | RPMI-8226 15.6 µM | CAKI-1 21.9 µM | SK-MEL-2 17.7 µM
